Assays:
[1] = system: Diaitaria ciliaris (Di); assay: Test Example 3: herbicidal effects by upland field foliage treatment; type: in vivo; parameters: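 grade of growth control; 5 = at least 90%; 4 = 70 to 90%; 3 = 50 to 70%; 2 = 30 to 50%; 1 = 10 to 30%; 0 = under 10%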; details: 100 g active ingredient per 10 ares, evaluated 14th day after treatment
Summary of the method: (§1)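 Seeds → sand pot (120 cm^2) → soil cover → greenhouse 2 wk → foliar treatment → greenhouse → herbicidal score at 14 d post-treatment against graded standards.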

[2] = system: barnyardgrass (Ec); assay: as above; type: in vivo; parameters: scale not given here; details: 100 g active ingredient per 10 ares, evaluated 14th day after treatment
Summary of the method: as §1

[3] = system: pale smartweed (Po); assay: as above; type: in vivo; parameters: scale not given here; details: 100 g active ingredient per 10 ares, evaluated 14th day after treatment
Summary of the method: as §1

[4] = system: slender amaranth (Am); assay: as above; type: in vivo; parameters: scale not given here; details: 100 g active ingredient per 10 ares, evaluated 14th day after treatment
Summary of the method: as §1

[5] = system: common lambsquarters (Ch); assay: as above; type: in vivo; parameters: scale not given here; details: 100 g active ingredient per 10 ares, evaluated 14th day after treatment
Summary of the method: as §1

[6] = system: rice flatsedge (Ci); assay: as above; type: in vivo; parameters: scale not given here; details: 100 g active ingredient per 10 ares, evaluated 14th day after treatment
Summary of the method: as §1

[7] = system: China jute (Ab); assay: Test Example 9: crop plant selectivity by upland field foliage treatment (wheat), herbicidal effects; type: in vivo; parameters: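 grade of growth control; 5 = at least 90%; 4 = 70 to 90%; 3 = 50 to 70%; 2 = 30 to 50%; 1 = 10 to 30%; 0 = under 10%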; details: dose 1.6 g ai/10a, 14th day after treatment
Summary of the method: (§2)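 Wheat and broadleaf weeds were sown together in sand-filled pots and grown for 2 weeks in a greenhouse before foliar treatment. Herbicidal effect on weeds and phytotoxicity to wheat were scored visually against set grading standards on day 14 after treatment, with plants kept in the greenhouse.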

[8] = system: pale smartweed (Po); assay: as above; type: in vivo; parameters: scale not given here; details: dose 1.6 g ai/10a, 14th day after treatment
Summary of the method: as §2

[9] = system: slender amaranth (Am); assay: as above; type: in vivo; parameters: scale not given here; details: dose 1.6 g ai/10a, 14th day after treatment
Summary of the method: as §2

[10] = system: common lambsquarters (Ch); assay: as above; type: in vivo; parameters: scale not given here; details: dose 1.6 g ai/10a, 14th day after treatment
Summary of the method: as §2

[11] = system: wheat (Tr); assay: Test Example 9: crop plant selectivity by upland field foliage treatment (wheat), phytotoxicity; details: dose 1.6 g ai/10a, 14th day after treatment;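 note: grade of crop injury; 5 = at least 90%; 4 = 70 to 90%; 3 = 50 to 70%; 2 = 30 to 50%; 1 = 10 to 30%; 0 = under 10%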
Summary of the method: as §2

[12] = system: China jute (Ab); assay: Test Example 11: crop plant selectivity by upland field foliage treatment (corn), herbicidal effects; type: in vivo; parameters: scale not given here; details: dose 1.6 g ai/10a
Protocol: (§3) (Test on Crop Plant Selectivity by Upland Field Foliage Treatment)
(§4) In a plastic pot (surface area: 600 cm^2) filled with sand, corn (Ze), pale smartweed (Po), slender amaranth (Am), common lambsquarters (Ch) and China jute (Ab) were sown and cultured in a green house for 2 weeks. […] The plants were then cultured in a green house, and the evaluation of the herbicidal effects and phytotoxicity was conducted on the 14th day after the treatment in accordance with the standards as identified in Table 47.

[13] = system: pale smartweed (Po); assay: as above; type: in vivo; parameters: scale not given here; details: dose 1.6 g ai/10a
Protocol: as §3, §4

[14] = system: slender amaranth (Am); assay: as above; type: in vivo; parameters: scale not given here; details: dose 1.6 g ai/10a
Protocol: as §3, §4

[15] = system: common lambsquarters (Ch); assay: as above; type: in vivo; parameters: scale not given here; details: dose 1.6 g ai/10a
Protocol: as §3, §4

[16] = system: Digitaria ciliaris (Di); assay: Test Example 2: herbicidal effects by upland field soil treatment; type: in vivo; details: 100 g of the active ingredient per 10 ares, evaluated on the 21st day after application;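 note: grade of growth control; 5 = at least 90%; 4 = 70 to 90%; 3 = 50 to 70%; 2 = 30 to 50%; 1 = 10 to 30%; 0 = under 10%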
From the text: (§5) (Test on Herbicidal Effects by Upland Field Soil Treatment)

[17] = system: barnyardgrass (Ec); assay: as above; type: in vivo; details: 100 g of the active ingredient per 10 ares, evaluated on the 21st day after application
From the text: as §5

[18] = system: pale smartweed (Po); assay: as above; type: in vivo; details: 100 g of the active ingredient per 10 ares, evaluated on the 21st day after application
From the text: as §5

[19] = system: slender amaranth (Am); assay: as above; type: in vivo; details: 100 g of the active ingredient per 10 ares, evaluated on the 21st day after application
From the text: as §5

[20] = system: common lambsquarters (Ch); assay: as above; type: in vivo; details: 100 g of the active ingredient per 10 ares, evaluated on the 21st day after application
From the text: as §5

[21] = system: rice flatsedge (Ci); assay: as above; type: in vivo; details: 100 g of the active ingredient per 10 ares, evaluated on the 21st day after application
From the text: as §5

[22] = system: monochoria (Mo); assay: Test Example 1: herbicidal effects by paddy field soil treatment; type: in vivo; details: 100 g of the active ingredient per 10 ares, 21st day after the application, index 0-5 of Table 47;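 note: grade of growth control; 5 = at least 90%; 4 = 70 to 90%; 3 = 50 to 70%; 2 = 30 to 50%; 1 = 10 to 30%; 0 = under 10%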
Summary of the method: (§6)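 Flooded paddy-soil pots (3 cm water) sown after puddling/leveling; treatment 100 g a.i./10 ares; greenhouse culture; herbicidal effect rated visually on a scoring scale at 21 d post-application.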

[23] = system: barnyardgrass (Ec); assay: as above; type: in vivo; details: 100 g of the active ingredient per 10 ares, 21st day after the application, index 0-5 of Table 47
Summary of the method: as §6

[24] = system: bulrush (Sc); assay: as above; type: in vivo; details: 100 g of the active ingredient per 10 ares, 21st day after the application, index 0-5 of Table 47;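 note: grade of growth control; 5 = at least 90%; 4 = 70 to 90%; 3 = 50 to 70%; 2 = 30 to 50%; 1 = 10 to 30%; 0 = under 10%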
Summary of the method: as §6

[25] = system: corn (Ze); assay: Test Example 11: crop plant selectivity by upland field foliage treatment (corn), phytotoxicity; details: dose 1.6 g ai/10a
Protocol: as §3, §4

[26] = upland field foliage treatment (corn test), 14th day after treatment
[27] = upland field foliage treatment, 14th day after treatment

SMILES | Herbicidal effects Di [1] | Herbicidal effects Ec [2] | Herbicidal effects Po [3] | Herbicidal effects Am [4] | Herbicidal effects Ch [5] | Herbicidal effects Ci [6] | Herbicidal effects Ab [7] | Herbicidal effects Po [8] | Herbicidal effects Am [9] | Herbicidal effects Ch [10] | Phytotoxicity Tr [11] | Herbicidal effects Di [16] | Herbicidal effects Ec [17] | Herbicidal effects Po [18] | Herbicidal effects Am [19] | Herbicidal effects Ch [20] | Herbicidal effects Ci [21] | Herbicidal effects Mo [22] | Herbicidal effects Ec [23] | Herbicidal effects Sc [24] | other results
COCOCc1cc(-c2ccc(C(F)(F)F)n(C)c2=O)c(F)cc1Cl [Compound 1-200] | 5 | 5 | 5 | 5 | 5 | 5 | 5 | 5 | 5 | 5 | 2 | 5 | 5 | 5 | 5 | 5 | 5 | 5 | 5 | 5 | Herbicidal effects Ab [12, 26]: 5; Herbicidal effects Po [13, 26]: 5; Herbicidal effects Am [14, 26]: 5; Herbicidal effects Ch [15, 26]: 5; Phytotoxicity Ze [25, 27]: 2
Cn1c(C(F)(F)F)ccc(-c2cc(COC3CCCC3)c(Cl)cc2F)c1=O [Compound 1-201] | 5 | 4 | 5 | 5 | 5 | 5 | 5 | 5 | 5 | 5 | 2 | 5 | 5 | 5 | 5 | 5 | 5 | 5 | 5 | 5 | Herbicidal effects Ab [12, 26]: 5; Herbicidal effects Po [13, 26]: 5; Herbicidal effects Am [14, 26]: 5; Herbicidal effects Ch [15, 26]: 5; Phytotoxicity Ze [25, 27]: 2
C=C(Cl)COc1cc(-c2ccc(C(F)(F)F)n(C)c2=O)c(F)cc1Cl [Compound 1-203] | 5 | 5 | 5 | 5 | 5 | 5 | 5 | 5 | 5 | 5 | 2 | 5 | 5 | 5 | 5 | 5 | 5 | 5 | 5 | 5 | Herbicidal effects Ab [12, 26]: 5; Herbicidal effects Po [13, 26]: 5; Herbicidal effects Am [14, 26]: 5; Herbicidal effects Ch [15, 26]: 5; Phytotoxicity Ze [25, 27]: 2
Cn1c(C(F)(F)F)ccc(-c2cc(OCCCF)c(Cl)cc2F)c1=O [Compound 1-204] | 5 | 5 | 5 | 5 | 5 | 5 | 5 | 5 | 5 | 5 | 2 | 5 | 5 | 5 | 5 | 5 | 5 | 5 | 5 | 5 | Herbicidal effects Ab [12, 26]: 5; Herbicidal effects Po [13, 26]: 5; Herbicidal effects Am [14, 26]: 5; Herbicidal effects Ch [15, 26]: 5; Phytotoxicity Ze [25, 27]: 2
COCN1C(=O)COc2cc(F)c(-c3ccc(C(F)(F)F)n(C)c3=O)cc21 [Compound 2-19] | 5 | 5 | 5 | 5 | 5 | 5 | 5 | 5 | 5 | 5 | 1 | 5 | 5 | 5 | 5 | 5 | 5 | 5 | 5 | 5 | Herbicidal effects Ab [12, 26]: 5; Herbicidal effects Po [13, 26]: 5; Herbicidal effects Am [14, 26]: 5; Herbicidal effects Ch [15, 26]: 5; Phytotoxicity Ze [25, 27]: 1
C=CCn1c(=O)sc2cc(F)c(-c3ccc(C(F)(F)F)n(C)c3=O)cc21 [Compound 3-5] | 5 | 5 | 5 | 5 | 5 | 5 | 5 | 5 | 5 | 5 | 1 | 5 | 5 | 5 | 5 | 5 | 5 | 5 | 5 | 5 | Herbicidal effects Ab [12, 26]: 5; Herbicidal effects Po [13, 26]: 5; Herbicidal effects Am [14, 26]: 5; Herbicidal effects Ch [15, 26]: 5; Phytotoxicity Ze [25, 27]: 2
Cn1c(C(F)(F)F)ccc(-c2cc3c(cc2F)sc(=O)n3C)c1=O [Compound 3-6] | 5 | 5 | 5 | 5 | 5 | 5 | 5 | 5 | 5 | 5 | 2 | 5 | 5 | 5 | 5 | 5 | 5 | 5 | 5 | 5 | Herbicidal effects Ab [12, 26]: 5; Herbicidal effects Po [13, 26]: 5; Herbicidal effects Am [14, 26]: 5; Herbicidal effects Ch [15, 26]: 5; Phytotoxicity Ze [25, 27]: 2
CCCc1cc2c(Cl)cc(F)c(-c3ccc(C(F)(F)F)n(C)c3=O)c2o1 [Compound 5-3] | 5 | 5 | 5 | 5 | 5 | 5 | 5 | 5 | 5 | 5 | 1 | 5 | 5 | 5 | 5 | 5 | 5 | 5 | 5 | 5 | Herbicidal effects Ab ([12]; China jute, foliage treatment, evaluated on 14th day after treatment, index per Table 47): 5; Herbicidal effects Po ([13]; pale smartweed, foliage treatment, evaluated on 14th day after treatment, index per Table 47): 5; Herbicidal effects Am ([14]; slender amaranth, foliage treatment, evaluated on 14th day after treatment, index per Table 47): 5; Herbicidal effects Ch ([15]; common lambsquarters, foliage treatment, evaluated on 14th day after treatment, index per Table 47): 5; Phytotoxicity Ze ([25]; corn, foliage treatment, evaluated on 14th day after treatment, index per Table 47): 2
